Biological target: Poly [ADP-ribose] polymerase 1 (Homo sapiens, UniProt P09874)
Experiment: PARP ELISA Assay
Details: pH 8; 22 °C
Experimental: The assay was performed in 96-well ELISA plates according to instructions provided with a commercially available PARP inhibition assay kit (Trevigen, Gaithersburg, MD). After incubation, incorporated biotin was detected by peroxidase-conjugated streptavidin and TACS Sapphire substrate.

Sequence of Poly [ADP-ribose] polymerase 1 (P09874 whole entry): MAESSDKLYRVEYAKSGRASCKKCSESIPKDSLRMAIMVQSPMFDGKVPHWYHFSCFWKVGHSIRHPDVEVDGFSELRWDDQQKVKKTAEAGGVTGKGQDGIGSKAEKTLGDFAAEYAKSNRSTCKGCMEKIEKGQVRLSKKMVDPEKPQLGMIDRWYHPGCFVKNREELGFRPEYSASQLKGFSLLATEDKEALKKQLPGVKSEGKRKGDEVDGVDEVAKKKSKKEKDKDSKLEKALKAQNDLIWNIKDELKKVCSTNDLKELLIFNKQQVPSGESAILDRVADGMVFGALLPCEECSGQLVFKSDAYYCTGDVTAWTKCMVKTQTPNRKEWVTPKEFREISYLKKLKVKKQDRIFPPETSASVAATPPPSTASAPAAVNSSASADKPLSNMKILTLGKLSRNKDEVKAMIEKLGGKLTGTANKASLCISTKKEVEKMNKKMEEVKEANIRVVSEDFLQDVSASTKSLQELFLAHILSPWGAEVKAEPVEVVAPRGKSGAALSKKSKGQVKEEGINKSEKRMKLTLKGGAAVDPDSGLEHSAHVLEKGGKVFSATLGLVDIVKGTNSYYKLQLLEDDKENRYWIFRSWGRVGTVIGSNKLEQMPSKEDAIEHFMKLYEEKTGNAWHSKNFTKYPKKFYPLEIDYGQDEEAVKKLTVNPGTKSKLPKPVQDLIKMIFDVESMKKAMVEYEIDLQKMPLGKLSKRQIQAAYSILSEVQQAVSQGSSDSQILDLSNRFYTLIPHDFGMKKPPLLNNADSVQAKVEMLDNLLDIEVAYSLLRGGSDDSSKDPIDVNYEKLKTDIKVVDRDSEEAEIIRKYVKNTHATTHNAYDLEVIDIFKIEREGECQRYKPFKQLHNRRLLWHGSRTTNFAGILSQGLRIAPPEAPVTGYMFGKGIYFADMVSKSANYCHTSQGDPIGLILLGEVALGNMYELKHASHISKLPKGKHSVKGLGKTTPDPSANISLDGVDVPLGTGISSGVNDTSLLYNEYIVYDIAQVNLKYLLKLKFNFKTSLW

| Structure (SMILES) | IC50 |
| --- | --- |
| C[N+]1(CCCNS(=O)(=O)c2ccc3c(c2)Cc2c-3[nH]c(=O)c3ccccc23)CCOCC1 [4-methyl-4-[3-({8-oxo-9-azatetracyclo[8.7.0.0^{2,7}.0^{11,16}]heptadeca-1(10),2(7),3,5,11(16),12,14-heptaene-14-}sulfonamido)propyl]morpholin-4-ium iodide] | 800 nM |
| O=c1[nH]c2c(c3ccccc13)Cc1cc(S(=O)(=O)NN3CCOCC3)c(F)cc1-2 [13-fluoro-N-(morpholin-4-yl)-8-oxo-9-azatetracyclo[8.7.0.0^{2,7}.0^{11,16}]heptadeca-1(10),2(7),3,5,11(16),12,14-heptaene-14-sulfonamide] | 450 nM |
| O=C(CCCN1CCOCC1)Nc1ccc2c(c1)-c1[nH]c(=O)c3ccccc3c1C2 [4-(morpholin-4-yl)-N-{8-oxo-9-azatetracyclo[8.7.0.0^{2,7}.0^{11,16}]heptadeca-1(10),2(7),3,5,11(16),12,14-heptaen-13-yl}butanamide] | 400 nM |

Reference: BindingDB's records for doi:10.1021/jm0502891 (Inotek Pharmaceuticals, 2005)
